Reference: the Kinase Knowledgebase extract (Sharma et al. 2016)

target: PIK3CA (human) (UniProt P42336); experiment: Inhibition of PIK3CA Kinase Activity
Sequence (P42336 whole entry, looked up): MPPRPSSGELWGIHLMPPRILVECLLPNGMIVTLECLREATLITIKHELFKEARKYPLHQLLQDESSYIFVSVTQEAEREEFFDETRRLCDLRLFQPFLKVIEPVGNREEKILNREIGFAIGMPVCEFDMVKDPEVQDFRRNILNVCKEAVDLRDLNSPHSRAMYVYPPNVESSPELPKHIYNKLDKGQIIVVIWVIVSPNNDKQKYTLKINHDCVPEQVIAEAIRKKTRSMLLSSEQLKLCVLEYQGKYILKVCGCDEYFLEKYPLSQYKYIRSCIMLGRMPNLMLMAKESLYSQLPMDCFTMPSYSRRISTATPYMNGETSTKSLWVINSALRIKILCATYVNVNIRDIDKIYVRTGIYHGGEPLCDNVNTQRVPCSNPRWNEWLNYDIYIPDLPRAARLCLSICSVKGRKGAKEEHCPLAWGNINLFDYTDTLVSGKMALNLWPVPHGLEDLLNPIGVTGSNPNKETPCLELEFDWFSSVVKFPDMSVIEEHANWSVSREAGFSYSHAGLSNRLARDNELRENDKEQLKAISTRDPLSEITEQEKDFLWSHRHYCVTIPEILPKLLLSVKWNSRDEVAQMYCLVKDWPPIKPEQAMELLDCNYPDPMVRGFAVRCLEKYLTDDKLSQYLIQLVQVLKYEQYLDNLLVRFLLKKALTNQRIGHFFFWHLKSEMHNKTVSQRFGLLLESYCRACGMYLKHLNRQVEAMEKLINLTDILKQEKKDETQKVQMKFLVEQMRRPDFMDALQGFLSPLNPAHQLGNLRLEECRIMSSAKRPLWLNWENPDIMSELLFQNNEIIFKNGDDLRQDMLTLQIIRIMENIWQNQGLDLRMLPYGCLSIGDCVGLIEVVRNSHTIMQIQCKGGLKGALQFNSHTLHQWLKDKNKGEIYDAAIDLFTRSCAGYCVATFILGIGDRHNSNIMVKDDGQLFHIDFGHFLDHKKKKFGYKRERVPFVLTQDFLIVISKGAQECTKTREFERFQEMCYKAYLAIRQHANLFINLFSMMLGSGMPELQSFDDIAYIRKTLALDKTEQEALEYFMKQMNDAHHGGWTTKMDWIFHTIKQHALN

SMILES | IC50
Cc1nc(CN(C)C)nc(N2CCOc3ccc(-c4ccc5[nH]c(CF)nc5c4)cc3C2)c1C(C)C | ≤ 10 nM
COc1ccc2c(N3CCOc4ccc(-c5ccc6nc(C)[nH]c6c5)cc4C3)ncnc2c1 | ≤ 10 nM
Cc1nc2ncc(-c3ccc4c(c3)CN(c3ncnc5c3CCC(C(F)(F)F)C5)CCO4)cc2[nH]1 (stereo unspecified) | 50 to 250 nM
CCc1c(C)nc(CN(C)C)nc1N1CCOc2ccc(-c3cnc4[nH]c(C)nc4c3)cc2C1 | ≤ 10 nM
c1cc(N2CCOc3ccc(-c4cnc5nc[nH]c5c4)cc3C2)ncn1 | 250 to 1000 nM
CC1(C)CCc2ncnc(N3CCOc4ccc(-c5cnc(N)c(S(=O)(=O)NCC(N)=O)c5)cc4C3)c2C1 | 10 to 50 nM
Cc1nc2ccc(-c3ccc4c(c3)CN(c3cc(C(C)C)ncn3)CCO4)cc2[nH]1 | 250 to 1000 nM
CCc1c(C)nc(C)nc1N1CCOc2ccc(-c3cnc4nc(C)[nH]c4c3)cc2C1 | 50 to 250 nM
CCNc1nc2ccc(-c3ccc4c(c3)CN(c3cc(C)nc5cc(OC)ccc35)CCO4)cc2[nH]1 | ≤ 10 nM
CNC(=O)c1ccc(-c2ccc3c(c2)CN(c2nc(CN(C)C)nc4c2CC(C)(C)CC4)CCO3)cc1 | 50 to 250 nM
Cc1nc2ccc(-c3ccc4c(c3)CN(c3ncnc5ccccc35)CCO4)cc2[nH]1 | 10 to 50 nM
Cc1nc2ncc(-c3ccc4c(c3)CN(c3nc(CNCC(F)F)nc5c3CC(C)(C)CC5)CCO4)cc2[nH]1 | 10 to 50 nM
CC(C)NS(=O)(=O)c1cc(-c2ccc3c(c2)CN(c2ncnc4c2CC(C)(C)CC4)CCO3)cnc1N | ≤ 10 nM
Cc1nc2ncc(-c3ccc4c(c3)CN(c3ncnc(C)c3Br)CCO4)cc2[nH]1 | 50 to 250 nM
CC(C)(O)CNS(=O)(=O)c1cc(-c2ccc3c(c2)CN(c2ncnc4c2CC(C)(C)CC4)CCO3)cnc1N | 10 to 50 nM
Cc1nc2ncc(-c3ccc4c(c3)CN(c3nc(CN(C)C5CC5)nc5c3CC(C)(C)CC5)CCO4)cc2[nH]1 | 50 to 250 nM
CCN(CC)Cc1nc(C)c(C(C)C)c(N2CCOc3ccc(-c4ccc5nc(C)[nH]c5c4)cc3C2)n1 | 10 to 50 nM
Cc1nc2c(c(N3CCOc4ccc(-c5cnc(N)c(S(=O)(=O)NCC6CCN(C)CC6)c5)cc4C3)n1)CC(C)(C)CC2 | 50 to 250 nM
CN1CCN(S(=O)(=O)c2cc(-c3ccc4c(c3)CN(c3ncnc5c3CC(C)(C)CC5)CCO4)cnc2N)CC1 | 50 to 250 nM
CC1(C)CCc2ncnc(N3CCOc4ccc(-c5cnc(N)c(NS(C)(=O)=O)c5)cc4C3)c2C1 | 50 to 250 nM
CNCCN(C)c1ncnc(N2CCOc3ccc(-c4cnc5nc(C6CC6)[nH]c5c4)cc3C2)c1C | 250 to 1000 nM
Cc1nc2ncc(-c3ccc4c(c3)CN(c3ncnc5c3C[C@H](C)[C@@H](C)C5)CCO4)cc2[nH]1 | 50 to 250 nM

SMILES | IC50
Cc1nc2ccc(-c3ccc4c(c3)CN(c3nc(CNCCF)nc5c3CC(C)(C)CC5)CCO4)cc2[nH]1 | ≤ 10 nM
COc1ccc2c(N3CCOc4ccc(-c5cnc6sc(NC(C)=O)nc6c5)cc4C3)nc(CN(C)C)nc2c1 | 10 to 50 nM
CCOc1ccc2ncnc(N3CCOc4ccc(-c5ccc6nc(C)[nH]c6c5)cc4C3)c2c1 | 50 to 250 nM
CNc1ncc(-c2ccc3c(c2)CN(c2ncnc4c2CC(C)(C)CC4)CCO3)cc1NS(C)(=O)=O | 50 to 250 nM
CC1(C)CCc2ncnc(N3CCOc4ccc(-c5cnc(N)c(S(=O)(=O)N[C@@H]6CCNC6)c5)cc4C3)c2C1 | 10 to 50 nM
CC1(C)CCc2ncnc(N3CCOc4ccc(-c5cnc(N)c(S(=O)(=O)N6CC(F)(F)C6)c5)cc4C3)c2C1 | 50 to 250 nM
CC1=Cc2ncnc(N3CCOc4ccc(-c5cnc(N)c(S(=O)(=O)N6CC[C@@H](N)C6)c5)cc4C3)c2CC1(C)C | 10 to 50 nM
CC1(C)CCc2ncnc(N3CCOc4ccc(-c5ccc6[nH]c(C(F)F)nc6c5)cc4C3)c2C1 | 10 to 50 nM
Cc1nc(CN(C)C)nc(N2CCOc3ccc(-c4ccc5[nH]c(CF)nc5c4)cc3C2)c1Cc1ccc(F)cc1 | ≤ 10 nM
Cc1nc2ncc(-c3ccc4c(c3)CN(c3nc(CN)nc5c3CC(C)(C)CC5)CCO4)cc2[nH]1 | ≤ 10 nM
CC(=O)Nc1nc2cc(-c3ccc4c(c3)CN(c3nc(CN(C)C)nc5c3CC(C)(C)CC5)CCO4)cnc2s1 | 10 to 50 nM
CC1(C)CCc2nc(CC#N)nc(N3CCOc4ccc(-c5cnc6sc(N)nc6c5)cc4C3)c2C1 | 10 to 50 nM
CN(C)Cc1nc2c(c(N3CCOc4ccc(-c5cnc6nc(C7CC7)[nH]c6c5)cc4C3)n1)CC(C)(C)CC2 | ≤ 10 nM
Cc1nc2ccc(-c3ccc4c(c3)CN(c3ccnc(C)c3Cc3ccc(F)cc3)CCO4)cc2[nH]1 | 10 to 50 nM
Cc1nc2ccc(-c3ccc4c(c3)CN(c3ncnc(C)c3Cc3ccccc3)CCO4)cc2[nH]1 | 10 to 50 nM
CC1(C)CCc2ncnc(N3CCOc4ccc(-c5cnc6c(c5)S(=O)(=O)NC(=O)N6)cc4C3)c2C1 | 50 to 250 nM
Cc1nc(CN(C)C)nc(N2CCOc3ccc(-c4cnc5sc(N)nc5c4)cc3C2)c1CC(C)C | 50 to 250 nM
Cc1nc(CN(C)C)nc(N2CCOc3ccc(-c4cnc5sc(N)nc5c4)cc3C2)c1C | ≤ 10 nM
Cc1nc2cc(-c3ccc4c(c3)CN(c3nc(CN(C)C)nc(C)c3-c3ccccc3)CCO4)ccc2[nH]1 | 50 to 250 nM
CC1(C)CCc2ncnc(N3CCOc4ccc(-c5cnc(N)c(S(=O)(=O)NC6CCC6)c5)cc4C3)c2C1 | 10 to 50 nM
CCOC(=O)c1nc(N2CCOc3ccc(-c4ccc5nc(C)[nH]c5c4)cc3C2)c2ccccc2n1 | 50 to 250 nM
CCC1CCc2nc(C)nc(N3CCOc4ccc(-c5cnc6nc(C)[nH]c6c5)cc4C3)c2C1 (stereo unspecified) | 10 to 50 nM

SMILES | IC50
Cc1nc2ccc(-c3ccc4c(c3)CN(c3ccnc(Nc5ccccc5)n3)CCO4)cc2[nH]1 | 250 to 1000 nM
CCc1ncnc(N2CCOc3ccc(-c4cnc5nc(C)[nH]c5c4)cc3C2)c1C | 50 to 250 nM
Cc1nc2ccc(-c3ccc4c(c3)CN(c3nc(CN5CC[C@H](F)C5)nc5c3CC(C)(C)CC5)CCO4)cc2[nH]1 | 10 to 50 nM
CN(C)Cc1nc2c(c(N3CCOc4ccc(-c5ccc(N)nc5)cc4C3)n1)CC(C)(C)CC2 | 50 to 250 nM
Cc1nc2ncc(-c3ccc4c(c3)CN(c3ncnc5c3CCC(C)C5)CCO4)cc2[nH]1 (stereo unspecified) | 10 to 50 nM
Cc1ncnc(N2CCOc3ccc(-c4cnc5sc(N)nc5c4)cc3C2)c1Cc1ccc(F)cc1 | ≤ 10 nM
Cc1nc2ccc(-c3ccc4c(c3)CN(c3ccnc5cc(F)ccc35)CCO4)cc2[nH]1 | ≤ 10 nM
c1ccc2c(N3CCOc4ccc(-c5ccc6nc[nH]c6c5)cc4C3)ncnc2c1 | 10 to 50 nM
Cc1nc2ccc(-c3ccc4c(c3)CN(c3ncnc(C)c3Cc3ccccc3C)CCO4)cc2[nH]1 | 50 to 250 nM
COc1cc2nccc(N3CCOc4ccc(-c5ccc6nc(N)[nH]c6c5)cc4C3)c2cc1OC | 10 to 50 nM
Cc1ncnc(N2CCOc3ccc(-c4ccn5nc(N)nc5c4)cc3C2)c1Cc1ccc(F)cc1 | 10 to 50 nM
CC1(C)CCc2ncnc(N3CCOc4ccc(-c5cnc(N)c(S(=O)(=O)NC[C@H]6C[C@H]7CNC[C@H]7C6)c5)cc4C3)c2C1 | 50 to 250 nM
CN(C)Cc1nc2c(c(N3CCOc4ccc(-c5ccc6scnc6c5)cc4C3)n1)CC(C)(C)CC2 | 250 to 1000 nM
CC1(C)CCc2ncnc(N3CCOc4ccc(-c5cnc(N)c(S(=O)(=O)N[C@H]6CCNC6)c5)cc4C3)c2C1 | 10 to 50 nM
COc1ccc2c(N3CCOc4ccc(-c5cnc(N)c(S(=O)(=O)C[C@@H](C)CO)c5)cc4C3)ncnc2c1 | ≤ 10 nM
COCCOc1ccc2ncnc(N3CCOc4ccc(-c5ccc6nc(C)[nH]c6c5)cc4C3)c2c1 | 250 to 1000 nM
Cc1nc2ncc(-c3ccc4c(c3)CN(c3nc(CNC(C)C5CC5)nc5c3CC(C)(C)CC5)CCO4)cc2[nH]1 (stereo unspecified) | 10 to 50 nM
Cc1nc2ncc(-c3ccc4c(c3)CN(c3nc(CNC(C)(C)C)nc5c3CC(C)(C)CC5)CCO4)cc2[nH]1 | 10 to 50 nM
CC1(C)CCc2ncnc(N3CCOc4ccc(-c5cnc(N)c(S(=O)(=O)NCC(O)C(F)(F)F)c5)cc4C3)c2C1 (stereo unspecified) | 10 to 50 nM
COc1ccc2c(N3CCOc4ccc(-c5cnc6nc(C)[nH]c6c5)cc4C3)nc(CN(C)C)nc2c1 | ≤ 10 nM
CC1(C)CCc2ncnc(N3CCOc4ccc(-c5ccc6nc(N)[nH]c6c5)cc4C3)c2C1 | 50 to 250 nM
CC1(C)CCc2ncnc(N3CCOc4ccc(-c5cnc(N6CC[C@H](N)C6)c(S(=O)(=O)N6CC[C@H](N)C6)c5)cc4C3)c2C1 | 250 to 1000 nM

SMILES | IC50
Cc1nc2c(c(N3CCOc4ccc(-c5cnc(N)c(S(=O)(=O)N[C@@H]6CCN(C)C6)c5)cc4C3)n1)CC(C)(C)CC2 | 50 to 250 nM
COc1ccc2c(N3CCOc4ccc(-c5ccc6[nH]c(C)nc6c5)cc4C3)nc(CN(C)C)nc2c1 | ≤ 10 nM
COCc1nc2c(c(N3CCOc4ccc(-c5cnc6[nH]c(C)nc6c5)cc4C3)n1)CC(C)(C)CC2 | 10 to 50 nM
COc1ccc(-c2ccc3c(c2)CN(c2nc(CN(C)C)nc4c2CC(C)(C)CC4)CCO3)cc1S(C)(=O)=O | 10 to 50 nM
Cc1nc2ncc(-c3ccc4c(c3)CN(c3ncnc(N5CCOCC5)c3C)CCO4)cc2[nH]1 | 50 to 250 nM
CC1(C)CCc2ncnc(N3CCOc4ccc(-c5cnc(N)c(S(=O)(=O)NCC(O)CO)c5)cc4C3)c2C1 (stereo unspecified) | 10 to 50 nM
CC1(C)CCc2ncnc(N3CCOc4ccc(-c5cnc6c(c5)OCCN6)cc4C3)c2C1 | 250 to 1000 nM
Cc1ncc(-c2ccc3c(c2)CN(c2ncnc4c2CC(C)(C)CC4)CCO3)cc1NS(C)(=O)=O | 10 to 50 nM
Cc1nc2cc(-c3ccc4c(c3)CN(c3nc(CN(C)C)nc(C)c3C(C)C)CCO4)ccc2[nH]1 | ≤ 10 nM
CCNc1nc2ccc(-c3ccc4c(c3)CN(c3ncnc5cc(OC)c(OC)cc35)CCO4)cc2[nH]1 | 10 to 50 nM
COc1ccc2c(N3CCOc4ccc(-c5ccc6[nH]cnc6c5)cc4C3)nc(CN(C)C)nc2c1 | ≤ 10 nM
COc1ccc2c(N3CCOc4ccc(-c5cnc6[nH]c(C)nc6c5)cc4C3)nc(C)nc2c1 | ≤ 10 nM
Cc1nc2ncc(-c3ccc4c(c3)CN(c3ncnc5c3CC[C@@H](C)C5)CCO4)cc2[nH]1 | 50 to 250 nM
Cc1nc(C)c(C(C)C)c(N2CCOc3ccc(-c4cnc5nc(C)[nH]c5c4)cc3C2)n1 | 10 to 50 nM
CC1(C)CCc2ncnc(N3CCOc4ccc(-c5cnc(N)c(S(=O)(=O)N6CC(O)(CO)C6)c5)cc4C3)c2C1 | 10 to 50 nM
Cc1nc2ncc(-c3ccc4c(c3)CN(c3ncnc5c3CC[C@H](C)C5)CCO4)cc2[nH]1 | 10 to 50 nM
CNCc1nc2c(c(N3CCOc4ccc(-c5cnc6nc(C)[nH]c6c5)cc4C3)n1)CC(C)(C)CC2 | ≤ 10 nM
CCNc1nc2ccc(-c3ccc4c(c3)CN(c3ncnc(NCC)c3C)CCO4)cc2[nH]1 | ≤ 10 nM
Cc1nc2ccc(-c3ccc4c(c3)CN(c3ncnc5c3CCC(C)(C)C5)CCO4)cc2[nH]1 | 50 to 250 nM
Cc1nc2ccc(-c3ccc4c(c3)CN(c3nc(CO)nc(C)c3C(C)C)CCO4)cc2[nH]1 | 10 to 50 nM
